Test results taken from patent US6399745B1, “Use of leptin antagonists for treating insulin resistance in type II diabetes” (Aventis Pharma Deutschland GmbH, priority 1996, dated 2002).

Test system: isolated rat adipocytes
Test: Glucose transport (2-deoxyglucose uptake) in isolated rat adipocytes after primary culture with leptin, basal and insulin-stimulated
Type: cell-based
Settings: for Glucose Transport, stimulation factor for insulin (stimulated/basal): Insulin concentration: 5 nM
Description: Adipocytes were prepared from the epididymal fat tissue of male Wistar rats (140-160 g, Hoechst AG breeding station, Kastengrund) by means of digesting with collagenase (Rodbell, 1964, J. Biol. Chem. 239, 375-380), washed twice with KRH (25 mM Hepes free acid, 25 mM Hepes sodium salt, 80 mM NaCl, 1 mM MgSO4, 2 mM CaCl2, 6 mM KCl, 1 mM sodium pyruvate, 0.5% BSA) and once with DMEM (Dulbecco's minimal essential medium), supplemented with 5.5 mM glucose, 20 mM Hepes (pH 7.4), 2% fetal calf serum, 1% BSA, 50 U of penicillin/ml, […], by means of flotation (800×g, 1 min, in small plastic tubes), and finally diluted to a volume of 20 ml of DMEM/g wet weight of the fat tissue (cell titer: approximately 2.5×10^5 cells/ml).
The adipocytes were incubated, at 37° C. for 15-18 h under an atmosphere of 5% CO2 and with gentle shaking, in supplemented (see above) DMEM in the presence of 100 nM phenylisopropyladenosine (4 ml of DMEM to 1 ml of cells, cell titer approximately 5×10^4 cell/ml, in 50 ml sterile polypropylene: tubes) and in the presence or absence of leptin. The adipocytes were subsequently washed three times with cold KRH and adjusted to a cell titer of approximately 3×10^5 cells/ml by adding 0.7 ml of glucose-free KRH to the cell layer which remained after the complete removal of the last washing solution. In order to determine the capacity of the adipocytes to be stimulated by insulin, and their sensitivity to insulin, following the primary culture, the washed adipocytes were incubated at 37° C. for 20 min in the absence or presence of human insulin (0.02-50 nM final concentration), and glucose transport or lipogenesis was then measured.
Glucose transport was measured as the specific uptake of the non-metabolizable glucose analog 2-deoxyglucose (Muller and Wied, 1993, Diabetes 42, 1852-1867). 50 μl of the adipocyte suspension in KRH, which suspension had or had not been preincubated with insulin (see above), were incubated, at 25° C. for 5 min, with 50 μl of KRH which was supplemented with 2-deoxy-D-[2,6-^3H]glucose (0.5 μCi, 0.2 mM). The incubation mixtures were transferred to thin soft-plastic centrifuge tubes, each of which already contained 200 μl of dinonyl phthalate oil, and immediately centrifuged (2,000×g, 30 sec). Using special shears, the tubes were severed within the oil layer (in the vicinity of the upper edge) and the upper halves of the tubes, together with the cell layers which had in each case been floated onto the oil layer, were transferred to scintillation vials. After 10 ml of scintillation fluid (water-based) had been added, the radioactivity associated with the cells was measured. In order to correct for 2-deoxyglucose which had become enclosed in the cell interstices, or had diffused into the cells, in a non-specific manner, the radioactivity of cells which had been preincubated with cytochalasin B (20 μM) was subtracted from the total cell-associated radioactivity of each individual incubation mixture (Gliemann et al., 1972, Biochim. Biophys. Acta 286, 1-9).
Isolated rat adipocytes were incubated for 15 h in primary culture in the presence or absence of increasing concentrations of leptin. […] The stimulation factor for insulin was calculated as the ratio between insulin-stimulated and basal activities. Each value represents the mean from two independent adipocyte cultures with activity being determined two or three times in each case.
The cells were then washed and tested for the stimulation of glucose transport by differing concentrations of insulin. Glucose transport activity is given as a “dpm value” of the 2deoxy-[^3H]glucose which is specifically associated with the cells. Each value represents the mean from two independent adipocyte cultures with the activity being determined four times in each case.

In the case of Leptin, the “leptin concentration at which effects can already be detected in vitro” value (insulin dose/effect curves at different leptin concentrations) is reported as 0.5 to 1 nM, the “glucose transport, uptake of 3H-labeled 2-deoxyglucose” value (from here on “glucose transport, uptake”) (leptin 0.05 nM 16.5 h, insulin 0.02 nM) is reported as 735 dpm and the “glucose transport, uptake” value (leptin 0.05 nM 16.5 h, insulin 0.05 nM) is reported as 1025 dpm. The “glucose transport, uptake” value (leptin 0.05 nM 16.5 h, insulin 0.1 nM) was 1674 dpm, the “glucose transport, uptake” value (leptin 0.05 nM 16.5 h, insulin 0.2 nM) was 3320 dpm and the “glucose transport, uptake” value (leptin 0.05 nM 16.5 h, insulin 0.5 nM) was 5138 dpm. The “glucose transport, uptake” value (leptin 0.05 nM 16.5 h, insulin 1 nM) was 6834 dpm, the “glucose transport, uptake” value (leptin 0.05 nM 16.5 h, insulin 2 nM) was 7942 dpm and the “glucose transport, uptake” value (leptin 0.05 nM 16.5 h, insulin 5 nM) was 8794 dpm. For the same substance, the “glucose transport, uptake” value (leptin 0.05 nM 16.5 h, insulin 10 nM) was 9134 dpm, the “glucose transport, uptake” value (leptin 0.05 nM 16.5 h, insulin 50 nM) was 9189 dpm and the “glucose transport, uptake” value (leptin 0.05 nM 16.5 h, no insulin (basal)) was 654 dpm. For the same substance, the “Glucose Transport, stimulation factor for insulin (stimulated/basal)” value (“Glucose Transport … (stimulated/basal)” below) (leptin 0.3 nM 15 h) was 13.4, the “Glucose Transport … (stimulated/basal)” value (leptin 1 nM 15 h) was 11.75 and the “glucose transport, uptake” value (leptin 1 nM 16.5 h, insulin 0.02 nM) was 678 dpm. For the same substance, the “glucose transport, uptake” value (leptin 1 nM 16.5 h, insulin 0.05 nM) was 824 dpm, the “glucose transport, uptake” value (leptin 1 nM 16.5 h, insulin 0.1 nM) was 1189 dpm and the “glucose transport, uptake” value (leptin 1 nM 16.5 h, insulin 0.2 nM) was 1587 dpm. For the same substance, the “glucose transport, uptake” value (leptin 1 nM 16.5 h, insulin 0.5 nM) was 2180 dpm, the “glucose transport, uptake” value (leptin 1 nM 16.5 h, insulin 1 nM) was 3904 dpm and the “glucose transport, uptake” value (leptin 1 nM 16.5 h, insulin 2 nM) was 5510 dpm. For the same substance, the “glucose transport, uptake” value (leptin 1 nM 16.5 h, insulin 5 nM) was 6985 dpm, the “glucose transport, uptake” value (leptin 1 nM 16.5 h, insulin 10 nM) was 8241 dpm and the “glucose transport, uptake” value (leptin 1 nM 16.5 h, insulin 50 nM) was 8932 dpm. The “glucose transport, uptake” value (leptin 1 nM 16.5 h, no insulin (basal)) was 634 dpm, the “glucose transport, uptake” value (leptin 2 nM 16.5 h, insulin 0.02 nM) was 704 dpm and the “glucose transport, uptake” value (leptin 2 nM 16.5 h, insulin 0.05 nM) was 755 dpm. The “glucose transport, uptake” value (leptin 2 nM 16.5 h, insulin 0.1 nM) was 860 dpm, the “glucose transport, uptake” value (leptin 2 nM 16.5 h, insulin 0.2 nM) was 1006 dpm and the “glucose transport, uptake” value (leptin 2 nM 16.5 h, insulin 0.5 nM) was 1377 dpm. The “glucose transport, uptake” value (leptin 2 nM 16.5 h, insulin 1 nM) was 1916 dpm, the “glucose transport, uptake” value (leptin 2 nM 16.5 h, insulin 2 nM) was 2680 dpm and the “glucose transport, uptake” value (leptin 2 nM 16.5 h, insulin 5 nM) was 4323 dpm. The “glucose transport, uptake” value (leptin 2 nM 16.5 h, insulin 10 nM) was 6107 dpm, the “glucose transport, uptake” value (leptin 2 nM 16.5 h, insulin 50 nM) was 7032 dpm and the “glucose transport, uptake” value (leptin 2 nM 16.5 h, no insulin (basal)) was 688 dpm. The “Glucose Transport … (stimulated/basal)” value (leptin 3 nM 15 h) was 7.4, the “glucose transport, uptake” value (leptin 5 nM 16.5 h, insulin 0.02 nM) was 734 dpm and the “glucose transport, uptake” value (leptin 5 nM 16.5 h, insulin 0.05 nM) was 798 dpm. For the same substance, the “glucose transport, uptake” value (leptin 5 nM 16.5 h, insulin 0.1 nM) was 883 dpm, the “glucose transport, uptake” value (leptin 5 nM 16.5 h, insulin 0.2 nM) was 923 dpm and the “glucose transport, uptake” value (leptin 5 nM 16.5 h, insulin 0.5 nM) was 1167 dpm. The “glucose transport, uptake” value (leptin 5 nM 16.5 h, insulin 1 nM) was 1583 dpm.
